Test results published in PubChem BioAssay (NCI).
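Method: 48-hour compound exposure of cells in 96-well plates, five concentrations, linear interpolation of endpoints. TGI: total growth inhibition.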

What was measured:
Experiment in all cases: NCI tumour cell line growth inhibition, 48 h
[1] = system: EKVX NSCLC
[2] = system: HCT-116 colon
[3] = system: HL-60(TB) leukemia
[4] = system: HS 578T breast
[5] = system: NCI-H226 lung
[6] = system: RPMI-8226 leukemia
[7] = system: RXF 393 renal
[8] = system: SF-295 CNS
[9] = system: SF-539 CNS
[10] = system: SK-MEL-5 melanoma
[11] = system: SN12C renal
[12] = system: SNB-19 CNS
[13] = system: SNB-75 CNS
[14] = system: TK-10 renal
[15] = system: U251 CNS
[16] = system: UACC-62 melanoma
[17] = system: COLO 205 colon
[18] = system: M14 melanoma
[19] = system: SF-268 CNS

SMILES	TGI [1] [µM]	TGI [2] [µM]	TGI [3] [µM]	TGI [4] [µM]	TGI [5] [µM]	TGI [6] [µM]	TGI [7] [µM]	TGI [8] [µM]	TGI [9] [µM]	TGI [10] [µM]	TGI [11] [µM]	TGI [12] [µM]	TGI [13] [µM]	TGI [14] [µM]	TGI [15] [µM]	TGI [16] [µM]	TGI [17] [µM]	TGI [18] [µM]	TGI [19] [µM]
OCC1OC(Oc2cc(O)cc(/C=C/c3ccc(O)cc3)c2)C(O)C(O)C1O (stereo not given)	> 100	> 100	> 100	> 100	> 100	> 100	> 100	> 100	> 100	> 100	> 100	> 100	> 100	> 100	> 100	> 100	–	–	–
C=CCOc1ccc(/C(N=Nc2ccccc2)=N/NC(=O)c2ccccc2)cc1OC	> 100	> 100	> 100	> 100	> 100	–	> 100	> 100	> 100	> 100	> 100	> 100	> 100	> 100	> 100	> 100	> 100	> 100	> 100
CN=CN(C)c1c2ccccc2nc2ccccc12	> 100	> 100	> 100	> 100	> 100	> 100	> 100	> 100	> 100	> 100	> 100	> 100	> 100	> 100	> 100	> 100	> 100	> 100	> 100
CCOP1(=O)C=C(Sc2ccc([N+](=O)[O-])cc2[N+](=O)[O-])C(C)(C)O1 (stereo not given)	18.8	18.8	77.3	> 78.8	47.2	39.2	31.8	40.8	27.5	23	41	> 57.8	50.3	31.3	30.3	26.4	23.9	24.5	49.5
Cc1nc(-n2[nH]c(C)c(CCO)c2=O)[nH]c(=O)c1CCO	> 100	> 100	> 100	> 100	> 100	> 100	> 100	> 100	> 100	> 100	> 100	> 100	> 100	> 100	> 100	> 100	> 100	> 100	> 100
CCCCCCCCCCCCCCCCCCNc1ccn(C2OC(CO)C(O)C2O)c(=O)n1 (stereo not given)	> 100	> 100	13.6	> 100	> 100	> 100	> 100	> 100	> 100	> 100	> 100	> 100	> 100	> 100	> 100	> 100	> 100	> 100	> 100
O=C(O)CCC(NC(=O)c1ccc(Nc2cnc3ccc(C(F)(F)F)cc3n2)cc1)C(=O)O (stereo not given)	> 100	> 100	> 100	> 100	> 100	> 100	> 100	> 100	> 100	> 100	> 100	> 100	> 100	> 100	> 100	> 100	> 100	> 100	> 100
OCC1OC(NCCNCCNC2OC(CO)C(O)C(O)C2O)C(O)C(O)C1O (stereo not given)	> 100	> 100	> 100	> 100	> 100	> 100	> 100	> 100	> 100	> 100	> 100	> 100	> 100	> 100	> 100	> 100	> 100	> 100	> 100
CC(O)(/C=C/c1ccccc1)P(=O)(O)c1ccccc1 (stereo not given)	> 100	> 100	> 100	> 100	> 100	–	> 100	> 100	> 100	> 100	> 100	> 100	> 100	> 100	> 100	> 100	> 100	> 100	> 100
Cc1ccccc1NC(=O)C(=O)CC(=O)c1sc(Nc2ccccc2[N+](=O)[O-])nc1C	> 100	> 100	> 100	> 100	> 100	> 100	89.1	66.7	91	> 100	> 100	> 100	–	81.5	> 100	48	> 100	> 100	> 100
COc1ccc(C2C3CCc4ccccc4C3=NN2S(=O)(=O)c2ccc(Cl)cc2)cc1 (stereo not given)	> 100	> 100	74.9	> 100	> 100	51.3	58.4	50.9	39.1	> 100	> 100	> 100	–	> 100	60.8	> 100	23.1	> 100	> 100
CC(=O)O[C@@H]1[C@H]2[C@@H](OC(=O)c3ccccc3)[C@@H](C)C[C@]2(O)[C@H](OC(C)=O)[C@@]2(C)[C@@H]3CC(C)(C)C(=O)[C@]3(OC(C)=O)C[C@@]12C	> 25	> 25	> 25	> 25	> 25	–	> 25	> 25	> 25	> 25	> 25	> 25	> 25	> 25	> 25	> 25	> 25	> 25	> 25
